The results in this text go back to PubChem BioAssay AID588440 (The Scripps Research Institute Molecular Screening Center, 2011).

Calls of active or inactive are those of the source.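 How the source made its calls: active means half-maximal cytotoxic concentration at or below 10 µM; inactive means the rest.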

For this experiment, the system named is HEK293 LDH release cytotoxicity, resorufin fluorescence. Briefly: HEK cell cytotoxicity by LDH release, dose response, cytotoxicity control for IDE activator project, fluorescence, HEK cells (AID 588440). A general note: LDH leaks from cells whose membrane has failed.
As to `C#CCOCCOCCOCCNc1nc(N2CCN(C(=O)CCCCCCCCCCNC(=O)[C@H]([C@@H](C)CC)n3cc(CCCCCN)nn3)CC2)nc(N2CCN(C(=O)CCCCCCCCCCNC(=O)[C@H]([C@@H](C)CC)n3cc(CCCCN=C(N)N)nn3)CC2)n1`, the cytotoxic concentration (CC50) (as a rule, the concentration at which the toxic effect on the cells reaches its halfway point) is 2.07 µM. The value for `C#CCOCCOCCOCCNc1nc(N2CCN(C(=O)CCCCCCCCCCNC(=O)[C@H]([C@@H](C)CC)n3cc(CCCCN=C(N)N)nn3)CC2)nc(N2CCN(C(=O)CCCCCCCCCCNC(=O)[C@@H]([C@H](C)O)n3cc(C)nn3)CC2)n1` was 6.37 µM; that for `C#CCOCCOCCOCCNc1nc(N2CCN(C(=O)CCCCCCCCCCNC(=O)Cn3cc(C[C@@H](C)O)nn3)CC2)nc(N2CCN(C(=O)CCCCCCCCCCNC(=O)[C@H](CCCN=C(N)N)n3cc(C[C@@H](C)CC)nn3)CC2)n1` was 7.28 µM. The value for `C#CCOCCOCCOCCNc1nc(N2CCN(C(=O)CCCCCCCCCCNC(=O)Cn3cc(CCCCCN)nn3)CC2)nc(N2CCN(C(=O)CCCCCCCCCCNC(=O)[C@H](CO)n3cc(CCCSC)nn3)CC2)n1` was 17.4 µM (inactive); that for `C#CCOCCOCCOCCNc1nc(N2CCN(C(=O)CCCCCCCCCCNC(=O)Cn3cc(CCCCCN)nn3)CC2)nc(N2CCN(C(=O)CCCCCCCCCCNC(=O)[C@H]([C@@H](C)CC)n3cc(CCCCCN)nn3)CC2)n1` was 5.97 µM.

As for `C#CCOCCOCCOCCNc1nc(N2CCN(C(=O)CCCCCCCCCCNC(=O)Cn3cc(CCCCCN)nn3)CC2)nc(N2CCN(C(=O)CCCCCCCCCCNC(=O)Cn3cc(C[C@@H](C)O)nn3)CC2)n1`, the CC50 is 16.4 µM (inactive). `C#CCOCCOCCOCCNc1nc(N2CCN(C(=O)CCCCCCCCCCNC(=O)[C@H](CCCCN)n3cc(CCO)nn3)CC2)nc(N2CCN(C(=O)CCCCCCCCCCNC(=O)[C@H](CCCN=C(N)N)n3cc(C[C@@H](C)CC)nn3)CC2)n1`: the CC50 was 5.63 µM. The value for `C#CCOCCOCCOCCNc1nc(N2CCN(C(=O)CCCCCCCCCCNC(=O)[C@@H](CCSC)n3cc(CCO)nn3)CC2)nc(N2CCN(C(=O)CCCCCCCCCCNC(=O)[C@H](CO)n3cc(CCCCCN)nn3)CC2)n1` was 12.6 µM (inactive); that for `C#CCOCCOCCOCCNc1nc(N2CCN(C(=O)CCCCCCCCCCNC(=O)[C@H](CO)n3cc(CCCSC)nn3)CC2)nc(N2CCN(C(=O)CCCCCCCCCCNC(=O)[C@H](CCCCN)n3cc(CCO)nn3)CC2)n1` was 20.8 µM (inactive).
